Experimental data as given in US20260015350A1, “AZAQUINAZOLINE PAN-KRAS INHIBITORS” (Mirati Therapeutics, Inc., priority 2022, published 2026).

Experiments:
[1] = target: T1, KRas^G12D (Homo sapiens, UniProt P01116, G12D); test: KRas binding assay (TR-FRET tracer displacement), KRas G12D
T1 construct: Biotinylated KRas (corresponding to amino acids 1-169, produced at Accelegan Inc.); biotin (biotinylated); purchased Accelegan Inc

[2] = target: T2, KRas^G12R (Homo sapiens, UniProt P01116, G12R); test: KRas binding assay (TR-FRET tracer displacement), KRas G12R
T2 construct: Biotinylated KRas (corresponding to amino acids 1-169, produced at Accelegan Inc.); biotin (biotinylated); purchased Accelegan Inc
T2 sequence (P01116 1-169 isoform P01116-2 G12R): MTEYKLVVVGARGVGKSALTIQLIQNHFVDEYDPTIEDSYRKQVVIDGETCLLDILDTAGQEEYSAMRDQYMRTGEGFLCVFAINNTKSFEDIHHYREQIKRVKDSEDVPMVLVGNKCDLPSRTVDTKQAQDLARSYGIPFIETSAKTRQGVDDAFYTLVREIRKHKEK

[3] = target: T3, KRas^G12V (Homo sapiens, UniProt P01116, G12V); test: KRas binding assay (TR-FRET tracer displacement), KRas G12V
T3 construct: Biotinylated KRas (corresponding to amino acids 1-169, produced at Accelegan Inc.); biotin (biotinylated); purchased Accelegan Inc
T3 sequence (P01116 1-169 isoform P01116-2 G12V): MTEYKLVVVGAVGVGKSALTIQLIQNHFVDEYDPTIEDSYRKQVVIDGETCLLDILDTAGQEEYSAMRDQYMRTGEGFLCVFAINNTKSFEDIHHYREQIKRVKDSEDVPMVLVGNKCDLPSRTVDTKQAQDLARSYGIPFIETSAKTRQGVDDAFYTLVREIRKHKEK

[4] = system: KRas-mediated phosphorylation of ERK in MKN1 cells; test: Inhibition of KRas-mediated phosphorylation of ERK (Cisbio HTRF pERK), MKN1 cells; type: cell-based; settings: Homo sapiens, MKN-1
How it was run: (§1)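 Overnight culture at 37° C./5% CO2 in RPMI containing 10% FBS, seeded 6,000 cells per well, preceded the assay. A covered 4-hour incubation at room temperature followed, then HTRF signal for phosphorylated ERK was measured.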

[5] = system: KRas-mediated phosphorylation of ERK in PSN1 cells; test: Inhibition of KRas-mediated phosphorylation of ERK (Cisbio HTRF pERK), PSN1 cells; type: cell-based; settings: Homo sapiens
How it was run: as §1

[6] = system: KRas-mediated phosphorylation of ERK in AsPC-1 cells; test: Inhibition of KRas-mediated phosphorylation of ERK (Cisbio HTRF pERK), AsPC-1 cells; type: cell-based; settings: Homo sapiens, ASPC1, AsPC-1 cells; HTRF pERK
How it was run: (§2)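 HTRF readout of phospho-ERK in cell lysates after 3 hrs of compound exposure. Dosing: 10 uM top, 3-fold steps, 10 doses, final DMSO 0.8%. Min control: 0.2 uM Trametinib. Lysis ran 40 mins at 4° C, and antibody detection 2 hrs at room temperature.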

[7] = system: KRas-mediated phosphorylation of ERK in H727 cells; test: Inhibition of KRas-mediated phosphorylation of ERK (Cisbio HTRF pERK), H727 cells; type: cell-based; settings: Homo sapiens, NCI-H727, H727 cells; HTRF pERK
How it was run: as §2

[8] = system: KRas-mediated phosphorylation of ERK in A549 cells; test: Inhibition of KRas-mediated phosphorylation of ERK (Cisbio HTRF pERK), A549 cells; type: cell-based; settings: Homo sapiens; for IC50: HTRF pERK
How it was run: (§3)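 A cell-based HTRF pERK assay: ten-point, threefold titrations beginning at 10 uM were applied for 3 hrs, with 0.2 uM Trametinib wells as the minimum control. Cells were lysed cold, and lysate was incubated with the antibody pair for 2 hrs before reading.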

[9] = system: KRas-mediated phosphorylation of ERK in H460 cells; test: Inhibition of KRas-mediated phosphorylation of ERK (Cisbio HTRF pERK), H460 cells; type: cell-based; settings: Homo sapiens; for IC50: NCI-H460, HTRF pERK
How it was run: as §2

[10] = system: KRas-mediated phosphorylation of ERK in HCT116 cells; test: Inhibition of KRas-mediated phosphorylation of ERK (Cisbio HTRF pERK), HCT116 cells; type: cell-based; settings: Homo sapiens; for IC50: HCT-116, HTRF pERK
How it was run: as §3

[11] = system: KRas-mediated phosphorylation of ERK in H358 cells; test: Inhibition of KRas-mediated phosphorylation of ERK (Cisbio HTRF pERK), H358 cells; type: cell-based; settings: Homo sapiens; for IC50: NCI-H358, HTRF pERK
How it was run: as §2

T1 sequence (P01116 1-169 isoform P01116-2 G12D): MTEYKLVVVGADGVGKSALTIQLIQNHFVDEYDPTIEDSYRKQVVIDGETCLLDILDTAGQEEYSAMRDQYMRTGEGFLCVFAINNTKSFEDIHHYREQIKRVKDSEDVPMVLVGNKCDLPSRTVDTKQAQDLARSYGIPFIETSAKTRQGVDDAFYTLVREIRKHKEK

Compound | IC50 [1] | IC50 [2] | IC50 [3] | IC50 [4] | IC50 [5] | IC50 [6] | IC50 [7] | IC50 [8] | IC50 [9] | IC50 [10] | IC50 [11] | inhibition at 0.1 µM ([8]; A549, 3 h, single point, 100 nM compound, 3 hrs) | inhibition at 0.1 µM ([9]; NCI-H460, 3 h, single point, 100 nM compound, 3 hrs) | inhibition at 0.1 µM ([10]; HCT-116, 3 h, single point, 100 nM compound, 3 hrs) | inhibition at 0.1 µM ([11]; NCI-H358, 3 h, single point, 100 nM compound, 3 hrs)
O=C1CC2(CCCN(c3nc(OC[C@@]45CCCN4C[C@H](F)C5)nc4c(F)c(-c5cc(O)cc6ccc(F)c(Cl)c56)ncc34)C2)C(=O)N1 (stereo partly drawn) [Example 774, 7-(7-(8-chloro-7-fluoro-3-hydroxynaphthalen-1-yl)-8-fluoro-2-(((2R,7aS)-2-fluorohexahydro-1H-pyrrolizin-7a-yl)methoxy)pyrido[4,3-d]pyrimidin-4-yl)-2,7-diazaspiro[4.5]decane-1,3-dione] | 2 nM | < 2 nM | < 2 nM | 123 nM | 2340 nM | 852 nM | 138 nM | 924 nM | 434 nM | 506 nM | 121 nM |  |  |  | 
CCc1c(F)ccc2cc(O)cc(-c3ncc4c(N5CC6CCC(C(=O)NC)(C6)C5)nc(OC[C@@]56CCCN5C[C@H](F)C6)nc4c3F)c12 (stereo partly drawn) [Example 889, 3-(7-(8-ethyl-7-fluoro-3-hydroxynaphthalen-1-yl)-8-fluoro-2-(((2R,7aS)-2-fluorotetrahydro-1H-pyrrolizin-7a(5H)-yl)methoxy)pyrido[4,3-d]pyrimidin-4-yl)-N-methyl-3-azabicyclo[3.2.1]octane-1-carboxamide] | 4 nM | 5 nM | < 2 nM | 55 nM | > 10000 nM | 600 nM | 129 nM | 365 nM | 134 nM | 188 nM | 24 nM |  |  |  | 
CCc1c(F)ccc2cc(O)cc(-c3ncc4c(N5CC6CCC(COC)(C6)C5)nc(OC[C@@]56CCCN5C[C@H](F)C6)nc4c3F)c12 (stereo partly drawn) [Example 891, 5-ethyl-6-fluoro-4-(8-fluoro-2-(((2R,7aS)-2-fluorotetrahydro-1H-pyrrolizin-7a(5H)-yl)methoxy)-4-(1-(methoxymethyl)-3-azabicyclo[3.2.1]octan-3-yl)pyrido[4,3-d]pyrimidin-7-yl)naphthalen-2-ol] | 22 nM | 9 nM | 6 nM | 73 nM | > 10000 nM | 621 nM | 295 nM | 658 nM | 150 nM | 568 nM | 382 nM |  |  |  | 
C#Cc1c(F)ccc2cc(O)cc(-c3ncc4c(N5CCCC6(CC(O)C6)C5)nc(OC[C@]56CCCN5[C@H](COC(=O)N(C)C)CC6)nc4c3F)c12 (stereo partly drawn) [Example 835, ((3S,7aR)-7a-(((7-(8-ethynyl-7-fluoro-3-hydroxynaphthalen-1-yl)-8-fluoro-4-(2-hydroxy-6-azaspiro[3.5]nonan-6-yl)pyrido[4,3-d]pyrimidin-2-yl)oxy)methyl)hexahydro-1H-pyrrolizin-3-yl)methyl dimethylcarbamate] | 3 nM | < 2 nM | < 2 nM | 20 nM | 1620 nM | 146 nM | 72 nM | 192 nM | 72 nM | 137 nM | 31 nM |  |  |  | 

Continued, in another order:

IC50 [1] | IC50 [2] | IC50 [3] | IC50 [4] | IC50 [5] | IC50 [6] | IC50 [7] | IC50 [8] | IC50 [9] | IC50 [10] | IC50 [11] | Compound | inhibition at 0.1 µM ([8]; A549, 3 h, single point, 100 nM compound, 3 hrs) | inhibition at 0.1 µM ([9]; NCI-H460, 3 h, single point, 100 nM compound, 3 hrs) | inhibition at 0.1 µM ([10]; HCT-116, 3 h, single point, 100 nM compound, 3 hrs) | inhibition at 0.1 µM ([11]; NCI-H358, 3 h, single point, 100 nM compound, 3 hrs)
< 2 nM | 3 nM | 2 nM | 22 nM | 2070 nM | 12 nM | 81 nM | 22 nM | 21 nM | 48 nM | 16 nM | CCCCN(C)C(=O)OC[C@@H]1CC[C@@]2(COc3nc(N4CCC[C@@](C)(O)C4)c4cnc(-c5cc(O)cc6ccc(F)c(CC)c56)c(F)c4n3)CCCN12 [Example 874, ((3S,7aR)-7a-(((7-(8-ethyl-7-fluoro-3-hydroxynaphthalen-1-yl)-8-fluoro-4-((R)-3-hydroxy-3-methylpiperidin-1-yl)pyrido[4,3-d]pyrimidin-2-yl)oxy)methyl)hexahydro-1H-pyrrolizin-3-yl)methyl butyl(methyl)carbamate] |  |  |  | 
< 2 nM | < 2 nM | < 2 nM | 196 nM | > 10000 nM | 250 nM | 836 nM | 355 nM | 252 nM | 1010 nM | 56 nM | CCc1c(F)ccc2cc(O)cc(-c3ncc4c(N5CCOCC6(CNC(=O)N6)C5)nc(OC[C@@]56CCCN5C[C@H](F)C6)nc4c3F)c12 (stereo partly drawn) [Example 898, 10-(7-(8-ethyl-7-fluoro-3-hydroxynaphthalen-1-yl)-8-fluoro-2-(((2R,7aS)-2-fluorotetrahydro-1H-pyrrolizin-7a(5H)-yl)methoxy)pyrido[4,3-d]pyrimidin-4-yl)-7-oxa-1,3,10-triazaspiro[4.6]undecan-2-one] |  |  |  | 
297 nM | 94 nM | 394 nM | 1140 nM | > 10000 nM | 4150 nM | 7440 nM | 2610 nM | 1350 nM | 6310 nM | 2700 nM | CCc1c(F)ccc2cc(O)cc(-c3ncc4c(N5CC6CCC(C(=O)N(C)C)(C5)C6(F)F)nc(OC[C@@]56CCCN5C[C@H](F)C6)nc4c3F)c12 (stereo partly drawn) [Example 905, 3-(7-(8-ethyl-7-fluoro-3-hydroxynaphthalen-1-yl)-8-fluoro-2-(((2R,7aS)-2-fluorotetrahydro-1H-pyrrolizin-7a(5H)-yl)methoxy)pyrido[4,3-d]pyrimidin-4-yl)-8,8-difluoro-N,N-dimethyl-3-azabicyclo[3.2.1]octane-1-carboxamide] |  |  |  | 
8 nM | 5 nM | 3 nM | 87 nM | > 10000 nM | 3450 nM | 1140 nM | 2750 nM | 797 nM | 1200 nM | 186 nM | CCc1c(F)ccc2cc(O)cc(-c3ncc4c(N5CC6CCC(C(N)=O)(C6)C5)nc(OC[C@@]56CCCN5C[C@H](F)C6)nc4c3F)c12 (stereo partly drawn) [Example 834, 3-(7-(8-ethyl-7-fluoro-3-hydroxynaphthalen-1-yl)-8-fluoro-2-(((2R,7aS)-2-fluorotetrahydro-1H-pyrrolizin-7a(5H)-yl)methoxy)pyrido[4,3-d]pyrimidin-4-yl)-3-azabicyclo[3.2.1]octane-1-carboxamide] |  |  |  | 
< 2 nM | 2 nM | < 2 nM | 14 nM | 3080 nM | 69 nM | 83 nM |  |  |  |  | C#Cc1c(F)ccc2cc(O)cc(-c3ncc4c(N5CCC[C@@](C)(O)C5)nc(OC[C@]56CCCN5[C@H](COC(=O)N(C)C)CC6)nc4c3F)c12 [Example 753, ((3S,7aR)-7a-(((7-(8-ethynyl-7-fluoro-3-hydroxynaphthalen-1-yl)-8-fluoro-4-((R)-3-hydroxy-3-methylpiperidin-1-yl)pyrido[4,3-d]pyrimidin-2-yl)oxy)methyl)hexahydro-1H-pyrrolizin-3-yl)methyl dimethylcarbamate] | 2% | 42% | 23% | 76%
< 2 nM | < 2 nM | < 2 nM | 21 nM | 3420 nM | 17 nM | 24 nM | 61 nM | 22 nM | 53 nM | 12 nM | Oc1cc(-c2ncc3c(N4CCOCC5(CCO5)C4)nc(OC[C@@]45CCCN4C[C@H](F)C5)nc3c2F)c2c(Cl)c(F)ccc2c1 (stereo partly drawn) [Example 868, 5-chloro-6-fluoro-4-(8-fluoro-2-(((2R,7aS)-2-fluorotetrahydro-1H-pyrrolizin-7a(5H)-yl)methoxy)-4-(1,6-dioxa-9-azaspiro[3.6]decan-9-yl)pyrido[4,3-d]pyrimidin-7-yl)naphthalen-2-ol] |  |  |  | 
